Experimental data taken from paper PMC3227622, “GnRH receptor activation competes at a low level with growth signaling in stably transfected human breast cell lines” (BMC Cancer, 2011).
Entries after “also recorded” stand apart in the source; their conditions may differ. Read-outs that look alike come from different tables or passages of the source.

Legend:
[1] = tested on: SVCT-2 cells; experiment: SRB cell growth assay, SVCT-2 (rat GnRH receptor transfected); type: cell-based, human; conditions: for IC50: Homo sapiens; for IC50 / effect on cell growth of co-treatment / effect on cell growth: SRB; for effect on cell growth: single treatment
Description: (§1) Cells were cultured in Dulbecco's modified Eagle's medium (DMEM) with 10% fetal bovine serum. Medium for SVCT cells was supplemented with recombinant human insulin and hydrocortisone as specified by the suppliers (ECACC, UK). HEK293[SCL60] and WPE-1-NB26-8 cells were cultured as described elsewhere. Cells were transfected with a plasmid construct, pcDNA3.1(+) (neo) (Invitrogen, UK) containing a rat GnRH receptor cDNA insert, using Fugene 6 (Roche, UK) in Optimem-I (GIBCO, Invitrogen, UK). Cell clones growing in 6 cm dishes were picked using trypsinization in cloning cylinders (Sigma, UK) and sequentially expanded in multiwell plates and flasks prior to characterization. Sub-clones were generated by re-transfecting an individual clone with a 2.334 kb SV40 promoter-hygromycin phosphotransferase cDNA fragment excised from pcDNA3.1(-) (hygro) plasmid (Invitrogen, UK) using PvuII (Promega, UK) and purified following agarose gel electrophoresis.
(§2) Cells were seeded into 12 well plates and growth was monitored using the sulforhodamine B (SRB) staining assay described previously. Two milliliters culture medium per well was sufficient to sustain cell growth over all time courses investigated. Cells were treated with a dose range of Triptorelin or vehicle (20% propylene glycol, Sigma, UK). Similar experiments employing IGF-IR, EGFR/ErbB2 and PI3K inhibitors were performed. Assay measurements were performed in triplicate and were repeated on separate occasions. At each time point, cells were fixed by adding 1 ml 25% trichloroacetic acid to each well, stored at 4°C for 1 h before gently washing and drying plates. Fixed cells were stained with 0.4% SRB in 1% acetic acid, washed, dried and dissolved in 1 ml 0.1 M Tris pH 10. Absorbance measurements at 540 nm correlated with the number of cells per well.
(§3) Immuno-fluorescence data were analyzed by one-way ANOVA using Minitab version 16 (Minitab Inc., USA). Prism software (GraphPad, USA) was used to prepare graphs and to calculate EC50 and IC50 values. Western blots were quantified using ImageQuant software (GE Healthcare). Quantitative data were analyzed using on-line tools for T-test, http://easycalculation.com/statistics/standard-deviation.php and http://www.quantitativeskills.com/sisa/.

[2] = tested on: MCF-7hygro14 cells; experiment: SRB cell growth assay, MCF-7hygro14 (MCF-7-30-7hygro14); type: cell-based, human; conditions: for IC50: 96 h, without co-treatment, read-out: IC50 growth inhibition; for IC50 / effect on cell growth of co-treatment / effect on cell growth: 4 days
Description: as §1, §2, §3

[3] = parameters: method as in PMID 17512856, PMID 19213681; conditions: by inhibiting secretion of luteinizing hormone and follicle stimulating hormone; ref [1],[2]; cited from earlier work
[4] = tested on: HEK293[SCL60] cells; experiment: SRB cell growth assay, HEK293[SCL60]; type: cell-based, human; conditions: SRB (Triptorelin: after 4 days)
Source text: Most reagents were purchased from Sigma UK, including D-Trp^6GnRH-I (D-Trp^6-LHRH, Triptorelin). Antibodies for ERK-1/2 and phosphorylated-ERK1/2 were purchased from Cell Signaling Technology, UK and for β-actin, from Sigma, UK. Secondary antibodies conjugated to alkaline phosphatase were from Sigma, UK. Insulin like growth factor receptor-I (IGF-IR) inhibitor II, EGFR/ErbB2 inhibitor and phosphatidylinositol-4,5-bisphosphate 3-kinase γ (PI3Kγ) inhibitor were purchased from Calbiochem, UK. SVCT cells were purchased from ECACC, UK. MCF-7, MDA-MB-231, ZR-75-1, and T47D cells were from American Type Culture Collection (LGC, UK). The GnRH receptor stably transfected HEK293[SCL60] and prostate WPE-1-NB26-8 cell lines described elsewhere together with HEK293 cells were used as controls for comparison.
Cells were cultured in Dulbecco's modified Eagle's medium (DMEM) with 10% fetal bovine serum. Medium for SVCT cells was supplemented with recombinant human insulin and hydrocortisone as specified by the suppliers (ECACC, UK). HEK293[SCL60] and WPE-1-NB26-8 cells were cultured as described elsewhere. […]
Cells were seeded into 12 well plates and growth was monitored using the sulforhodamine B (SRB) staining assay described previously. […] Absorbance measurements at 540 nm correlated with the number of cells per well.

[5] = tested on: MDA-MB-231-34 cells; experiment: SRB cell growth assay, MDA-MB-231-34; type: cell-based, human; conditions: SRB (Triptorelin 100 nM)
Description: as §1
Cells were seeded into 12 well plates and growth was monitored using the sulforhodamine B (SRB) staining assay described previously. Two milliliters culture medium per well was sufficient to sustain cell growth over all time courses investigated. Cells were treated with a dose range of Triptorelin or vehicle (20% propylene glycol, Sigma, UK). […] Absorbance measurements at 540 nm correlated with the number of cells per well.

[6] = tested on: p-ERK1/2 in MCF-7hygro14 cells; experiment: p-ERK1/2 western blot, MCF-7hygro14; type: cell-based, human; conditions: for ERK1/2 re-phosphorylation after inhibitor wash-off: 1 h exposure to IGF-IR inhibitor II, then medium containing serum
Description: (§4) Cells were grown in six-well plastic culture plates until 50-70% confluent. Some samples were washed twice with phosphate buffered saline prior to incubation in serum-free medium overnight. Cells were treated with 100 nM Triptorelin or vehicle for specific time periods prior to lysis and harvesting. Samples were processed for western blotting as described previously using NP40 lysis buffer at 4°C [8, 9]. For quantitative data, time points were measured in triplicate. Blots were imaged by a Typhoon phosphor-imager (GE Healthcare, UK) using enhanced chemi-fluorescence detection and analyzed using ImageQuant software (GE Healthcare, UK).
as §3

[7] = tested on: p-ERK1/2 in MDA-MB-231-34 cells; experiment: p-ERK1/2 western blot, MDA-MB-231-34; type: cell-based, human; conditions: IGF-IR inhibitor II
Description: as §4, §3

[8] = tested on: p-ERK1/2 in HEK293[SCL60] cells; experiment: p-ERK1/2 western blot, HEK293[SCL60]; type: cell-based, human; conditions: IGF-IR inhibitor washed off, without Triptorelin
Description: as §4, §3

[9] = 96 h, without co-treatment, 4 days, read-out: IC50 growth inhibition
[10] = co-treatment with 100 nM Triptorelin, 4 days
[11] = co-treatment with 100 nM Triptorelin, SRB
[12] = single treatment, SRB (Triptorelin 100 nM)
[13] = 15-20 μM IGF-IR inhibitor II, in the presence of serum
[14] = listed as IGF-I receptor inhibitor

For `COc1cc2ncnc(Nc3ccc(OCc4ccccc4)cc3)c2cc1OC` [EGFR/ErbB2 inhibitor, 4-(4-Benzyloxyanilino)-6,7-dimethoxyquinazoline], the IC50 [1, 9] was ~2 µM, the “growth inhibition relative to vehicle treated cells” value ([1]; after 4 days, SRB staining, 540 nm, DMEM with 10% fetal bovine serum, triplicate) was 50% and the “effect on cell growth of co-treatment” value [1, 10] was “did not significantly affect growth; also recorded: had no effect”. The “effect on cell growth” value ([1]; 4 days) was “reduced SVCT-2 cell growth”, the IC50 ([2]; Homo sapiens, SRB) was ~5 µM and the growth inhibition ([2]; after 4 days, SRB) was 50%. For the same compound, the “effect on cell growth of co-treatment” value [2, 11] was “no significant growth-inhibition; also recorded: did not significantly affect growth” and the “effect on cell growth” value [2, 12] was “inhibited”.

With `O=C1NC(=O)C(=Cc2ccc3nccnc3c2)S1` [PI3Kγ inhibitor, 5-Quinoxalin-6-ylmethylene-thiazolidine-2,4-dione] the “effect on cell growth” value ([2]; PI3K inhibitor 5 nM to 7 μM, maximum dose 7 μM) was “not affected”, the “effect on cell growth” value ([2]; PI3K inhibitor 5 nM to 7 μM, maximum dose 7 μM, listed as PI3K inhibitor) was “did not affect growth; also recorded: lack of effect” and the “effect on cell growth of co-treatment” value ([2]; PI3K inhibitor up to 7 μM with 100 nM Triptorelin) was “no significant growth-inhibition”. The “effect on cell growth of co-treatment” value ([2]; PI3K inhibitor up to 7 μM with 100 nM Triptorelin, listed as PI3K inhibitor) was “did not significantly alter this result”.

For goserelin, the “plasma levels of estrogen” value [3] is listed as “lowers plasma levels of estrogen”.

For `COc1ccc(Cl)cc1NC(=O)Nc1cc(C)nc2ccccc12` [IGF-IR inhibitor II, N-(2-Methoxy-5-chlorophenyl)-N'-(2-methylquinolin-4-yl)-urea], the IC50 [1, 9] was ~11 µM, the IC50 ([1]; co-treatment with 100 nM Triptorelin, read-out: apparent IC50 growth inhibition) was ~9 µM and the “effect on cell growth of co-treatment” value [1, 10] was “small additive effect; also recorded: increased growth inhibition marginally”. The “effect on cell growth of co-treatment” value ([1]; co-treatment with 100 nM Triptorelin, 4 days, listed as IGF-IR inhibitor) was “small additive growth-inhibitory effect”, the “effect on cell growth” value ([1]; 4 days) was “complete growth inhibition accompanied by cell death; also recorded: effectively inhibited” and the IC50 ([2]; Homo sapiens, SRB) was ~17 µM. For the same compound, the inhibition at 15 µM ([2]; Homo sapiens, 15 μM, exposure up to 2 hours, PBS washout, growth over 4 days, read-out: growth inhibition after transient exposure and washout) was < 10%, the “effect on cell growth of co-treatment” value [2, 11] was “no significant effect” and the “growth inhibition after transient exposure and washout” value ([2]; exposure 6 hours or more, PBS washout, growth over 4 days) was “more than 20%”. The “effect on cell growth” value [2, 12] was “Growth and survival were inhibited; also recorded: growth-inhibition and cell death”, the “effect on cell growth” value [4] was “inhibited” and the “effect on cell growth” value [5] was “inhibiting their growth also”. The “effect on levels of p-ERK1/2” value [6, 13] was “permanent decrease in levels of p-ERK1/2”, the “time to decrease in p-ERK1/2” value [6, 13] was ≤ 30 min and the “effect on levels of p-ERK1/2” value ([6]; 15-20 μM IGF-IR inhibitor II, in the presence of serum, listed as IGF-IR inhibitor) was “rapid and sustained de-phosphorylation of ERK1/2; also recorded: rapid decrease in the levels of p-ERK1/2”. The “ERK1/2 re-phosphorylation after inhibitor wash-off” value [6] was “rapid hyper-phosphorylation of ERK1/2 followed by a slow decline”, the “ERK1/2 re-phosphorylation after inhibitor wash-off” value [6, 14] was “Rapid re-phosphorylation of ERK1/2” and the “ERK1/2 re-phosphorylation after inhibitor wash-off” value ([6]; listed as IGF-IR inhibitor) was “rapid hyper-phosphorylation of ERK1/2, followed by a slow decline to basal levels”. For the same compound, the “effect on levels of p-ERK1/2” value [7] was “did not elicit this effect”, the “effect on levels of p-ERK1/2” value ([7]; listed as IGF-IR inhibitor) was “not in MDA-MB-231-34 cells; also recorded: did not affect levels of p-ERK1/2” and the “ERK1/2 re-phosphorylation after inhibitor wash-off” value [8] was “hyper-phosphorylation of ERK1/2 did not occur”. For the same compound, the “ERK1/2 re-phosphorylation after inhibitor wash-off” value [8, 14] was “Re-phosphorylation of ERK1/2 was less marked” and the “ERK1/2 re-phosphorylation after inhibitor wash-off” value ([8]; listed as IGFR-IR inhibitor II) was “rapid hyper-phosphorylation of ERK1/2 did not occur”.
